Assay results published in patent US6020006A, “Reduction of hair growth” (The Gillette Company, priority 1998, dated 2000).

Key:
[1] = molecular target: T1, Alkaline phosphatase (Mesocricetus auratus, UniProt A0A1U7QBN2); assay: Alkaline phosphatase activity, hamster flank organ hair follicle enzyme; assay type: biochemical
T1 construct: the supernatant was used as the enzyme source; from tissue; host or cells: whole hamster flank organs, homogenized, 12,000×g supernatant
T1 sequence (A0A1U7QBN2 18-524): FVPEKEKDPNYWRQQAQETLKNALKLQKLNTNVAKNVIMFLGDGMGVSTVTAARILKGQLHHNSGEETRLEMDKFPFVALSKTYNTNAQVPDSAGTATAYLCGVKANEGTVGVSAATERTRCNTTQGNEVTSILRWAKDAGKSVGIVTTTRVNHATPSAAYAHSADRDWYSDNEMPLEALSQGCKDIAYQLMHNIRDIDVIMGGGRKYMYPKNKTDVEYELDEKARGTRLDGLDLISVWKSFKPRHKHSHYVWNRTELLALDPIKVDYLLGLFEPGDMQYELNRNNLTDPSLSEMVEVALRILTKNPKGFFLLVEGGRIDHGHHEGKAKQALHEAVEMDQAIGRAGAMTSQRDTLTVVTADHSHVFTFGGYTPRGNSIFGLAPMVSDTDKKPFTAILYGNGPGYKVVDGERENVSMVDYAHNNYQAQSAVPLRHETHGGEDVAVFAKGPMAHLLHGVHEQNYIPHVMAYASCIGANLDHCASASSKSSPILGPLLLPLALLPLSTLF
Method: (§1) Alkaline phosphatase activity was determined using a kit supplied by Sigma Chemical Co. Whole flank organs from hamsters or isolated human hair follicles were homogenized in a Tris-sucrose buffer, pH 7.5, using a polytron. The homogenate was centrifuged at 12,000×g for 5 minutes in a microcentrifuge, and the supernatant was used as the enzyme source. The supernatant (0.1 mL) was added to a reaction mixture containing 0.5 mL substrate (p-nitophenol phosphate) and 0.5 mL reaction buffer (both reagents supplied in the kit). Inhibitors were added in a volume of 0.1 mL. Water was used as a negative control. Reaction mixtures were incubated for 30 minutes at 37° C. The reaction mixtures were then transferred to a tube containing 10 mL 0.05N NaOH. Absorbance was measured at a wavelength of 410 nm. Concentrated hydrochloric acid (0.2 mL) was added to each tube and tubes were mixed. Again, absorbance was measured at 410 nm. Absorbance values from the second measurement were substrated from the first measurement to give normalized alkaline phosphatase activity.

[2] = test system: Human hair follicles; assay: Human hair follicle growth assay; assay type: cell-based; settings: for % Inhibition / reduction in growth rate: Day 6-Day 0, vs control
Method: Human hair follicles in growth phase (anagen) were isolated from face-lift tissue under a dissecting scope using a scalpel and watchmakers forceps. The skin was sliced into thin strips exposing 2-3 rows of follicles that could readily be dissected. Follicles were placed into 0.5 mL Williams E medium (Life Technologies, Gaithersburg, Md.) supplemented with […] L-glutamine, 10 μg/mL insulin, 10 ng/mL hydrocortisone, 100 units penicillin, 0.1 mg/mL streptomycin and 0.25 μg/mL amphotericin B. The follicles were incubated in 24 well plates (1 follicle/well) at 37° C. in an atmosphere of 5% CO2 and 95% air. Hair follicles were videorecorded in the 24-well plates under the dissecting scope under a power of 20×. Typically, initial recordings were made on day 0 (day follicles were placed in culture) or day 1, and again on days 7 or 8. Hair follicle lengths were assessed using an image analysis software system (Computer Eyes and NIH Image).

[3] = molecular target: T2, Alkaline phosphatase (Homo sapiens, UniProt P05186); assay: Alkaline phosphatase activity, human hair follicle enzyme; assay type: biochemical
T2 construct: the supernatant was used as the enzyme source; from tissue; host or cells: isolated human hair follicles, homogenized, 12,000×g supernatant
T2 sequence (P05186 18-502 limits assumed): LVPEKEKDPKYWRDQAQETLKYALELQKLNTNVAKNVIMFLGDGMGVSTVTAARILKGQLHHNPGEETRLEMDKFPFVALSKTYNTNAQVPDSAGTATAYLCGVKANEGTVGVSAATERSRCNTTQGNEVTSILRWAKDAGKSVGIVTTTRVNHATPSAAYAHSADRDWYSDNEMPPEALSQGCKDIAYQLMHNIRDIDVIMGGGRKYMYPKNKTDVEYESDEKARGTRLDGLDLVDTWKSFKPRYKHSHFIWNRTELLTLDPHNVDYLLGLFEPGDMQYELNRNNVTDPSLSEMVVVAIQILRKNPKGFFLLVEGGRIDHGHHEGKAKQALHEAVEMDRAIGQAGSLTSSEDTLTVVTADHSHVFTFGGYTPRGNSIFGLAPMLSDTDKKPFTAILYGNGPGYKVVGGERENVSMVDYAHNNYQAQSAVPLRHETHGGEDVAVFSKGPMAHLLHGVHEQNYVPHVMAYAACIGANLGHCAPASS
Method: as §1

[4] = test system: tissue nonspecific form of alkaline phosphatase; settings: in several species; cited from earlier work
[5] = test system: tissue-specific form of alkaline phosphatase; settings: Millan, Clinica Chimica Acta. 209:123-129, 1992; cited from earlier work

c1ccc(C2CN3CCSC3=N2)cc1 (racemic) [Tetramisole, [±]-2,3,5,6-tetrahydro-6-phenyl-imidazo [2,1-b] thiazole]
IC50 ([1]; hamster hair follicle enzyme): 125 µM
Hair Follicle Length Increase (mm) (Day 6-Day 0) ([2]; 0.5 mM, control 1.08 ± .25 mm): 0.63 ± .06 mm
inhibition at 500 µM ([2]; Homo sapiens, read-out: % Inhibition of hair growth): 42 ± 5%

[Na+].[Na+].[Na+].[O]=[V]([O-])([O-])[O-] [Sodium Orthovanadate, sodium orthovanadate]
IC50 ([3]; Human Hair Follicle, Table 3, 30 minutes at 37° C.): 75 µM
IC50 ([3]; human hair follicle enzyme): 75 µM
IC50 ([1]; Flank Organ, Table 3, 30 minutes at 37° C.): 40 µM
IC50 ([1]; hamster hair follicle enzyme): 40 µM
% Inhibition / reduction in growth rate ([2]; 0.1 mM): 58 ± 8%
% Inhibition / reduction in growth rate ([2]; 0.1 mM, listed as sodium orthovanadate): 58±8%
Hair Follicle Length Increase (mm) (Day 6-Day 0) ([2]; 0.1 mM, control 0.77 ± .09 mm): 0.32 ± .06 mm

N=C(N)NCCCC[C@H](N)C(=O)O [L-homeoarginine]
inhibition of tissue nonspecific alkaline phosphatase [4]: inhibitor of the tissue nonspecific form of alkaline phosphatase in several species

N[C@@H](Cc1ccccc1)C(=O)O [phenylalanine]
inhibition of tissue-specific alkaline phosphatase [5]: inhibit the tissue-specific form of alkaline phosphatase in a stereoselective fashion in that only the L-form is active

N[C@@H](Cc1c[nH]c2ccccc12)C(=O)O [tryptophan]
inhibition of tissue-specific alkaline phosphatase [5]: inhibit the tissue-specific form of alkaline phosphatase in a stereoselective fashion in that only the L-form is active

CC(C)C[C@H](N)C(=O)O [leucine]
inhibition of tissue-specific alkaline phosphatase [5]: inhibit the tissue-specific form of alkaline phosphatase in a stereoselective fashion in that only the L-form is active
